Results from ChEMBL document CHEMBL3585328, “Colloidal and antibacterial properties of novel triple-headed, double-tailed amphiphiles: exploring structure-activity relationships and synergistic mixtures” (Bioorg Med Chem, 2015).
≈ marks a conversion by molar mass, not a printed value. Calls of active or inactive are those of the source. The calls are words filed in the database; no cut-off is given here.

How the values were obtained:
[1] = Critical aggregation concentration by at 37 degC isothermal titration calorimetry method; assay type: ADME
Bacillus cereus [2] = test: Antibacterial activity against Bacillus cereus assessed as inhibition of bacterial growth incubated for 72 hrs by CLSI based method; assay type: functional
Enterococcus faecalis [3] = test: Antibacterial activity against Enterococcus faecalis ATCC 29212 assessed as inhibition of bacterial growth incubated for 72 hrs by CLSI based method; assay type: functional; conditions: ATCC 29212, 72 h
Streptococcus agalactiae [4] = test: Antibacterial activity against Streptococcus agalactiae J48 assessed as inhibition of bacterial growth incubated for 72 hrs by CLSI based method; assay type: functional; conditions: J48, 72 h
Staphylococcus aureus [5] = test: Antibacterial activity against Staphylococcus aureus subsp. aureus ATCC 29213 assessed as inhibition of bacterial growth incubated for 72 hrs by CLSI based method; assay type: functional; conditions: ATCC 29213, 72 h
Escherichia coli [6] = test: Antibacterial activity against Escherichia coli ATCC 25922 assessed as inhibition of bacterial growth incubated for 72 hrs by CLSI based method; assay type: functional; conditions: ATCC 25922, 72 h
Pseudomonas aeruginosa [7] = test: Antibacterial activity against Pseudomonas aeruginosa ATCC 27853 assessed as inhibition of bacterial growth incubated for 72 hrs by CLSI based method; assay type: functional; conditions: ATCC 27853, 72 h
Bacillus cereus [8] = test: Bactericidal activity against Bacillus cereus assessed as inhibition of bacterial growth incubated for 72 hrs followed by culture growth in Todd-Hewitt agar medium and incubated for 24 hrs at 37 degC; assay type: functional, organism-based
Enterococcus faecalis [9] = test: Bactericidal activity against Enterococcus faecalis ATCC 29212 assessed as inhibition of bacterial growth incubated for 72 hrs followed by culture growth in Todd-Hewitt agar medium and incubated for 24 hrs at 37 degC; assay type: functional, organism-based
Streptococcus agalactiae [10] = test: Bactericidal activity against Streptococcus agalactiae J48 assessed as inhibition of bacterial growth incubated for 72 hrs followed by culture growth in Todd-Hewitt agar medium and incubated for 24 hrs at 37 degC; assay type: functional, organism-based
Staphylococcus aureus [11] = test: Bactericidal activity against Staphylococcus aureus subsp. aureus ATCC 29213 assessed as inhibition of bacterial growth incubated for 72 hrs followed by culture growth in Todd-Hewitt agar medium and incubated for 24 hrs at 37 degC; assay type: functional, organism-based
Escherichia coli [12] = test: Bactericidal activity against Escherichia coli ATCC 25922 assessed as inhibition of bacterial growth incubated for 72 hrs followed by culture growth in Todd-Hewitt agar medium and incubated for 24 hrs at 37 degC; assay type: functional, organism-based
Pseudomonas aeruginosa [13] = test: Bactericidal activity against Pseudomonas aeruginosa ATCC 27853 assessed as inhibition of bacterial growth incubated for 72 hrs followed by culture growth in Todd-Hewitt agar medium and incubated for 24 hrs at 37 degC; assay type: functional, organism-based

SMILES	CAC [1]	MIC (Bacillus cereus [2])	MIC (Enterococcus faecalis [3])	MIC (Streptococcus agalactiae [4])	MIC (Staphylococcus aureus [5])	MIC (Escherichia coli [6])	MIC (Pseudomonas aeruginosa [7])	Activity (Bacillus cereus [8])	Activity (Enterococcus faecalis [9])	Activity (Streptococcus agalactiae [10])	Activity (Staphylococcus aureus [11])	Activity (Escherichia coli [12])	Activity (Pseudomonas aeruginosa [13])
CCCCCCCCCCCC[N+](C)(C)Cc1cc(C[N+](C)(C)C)cc(C[N+](C)(C)CCCCCCCCCCCC)c1.[Br-].[Br-].[Br-]	2.5 mM	2 µM	2 µM	2 µM	2 µM	4 µM	16 µM	Active	Active	Active	Active	Active	Active
NC[C@H]1O[C@H](O[C@H]2[C@H](O)[C@@H](O[C@H]3O[C@H](CO)[C@@H](O)[C@H](N)[C@H]3O)[C@H](N)C[C@@H]2N)[C@H](N)C[C@@H]1O [TOBRAMYCIN]							6.4 µM (≈ 2.99 µg/mL)						
CCCCCCCCCC[N+](C)(C)Cc1cc(C[N+](C)(C)C)cc(C[N+](C)(C)CCCCCCCCCC)c1.[Br-].[Br-].[Br-]	12 mM	8 µM	8 µM	4 µM	16 µM	125 µM	> 250 µM	Active	Active	Active	Active	Active	Active
CCCCCCCCCCCCCCCC[N+](C)(C)Cc1cc(C[N+](C)(C)C)cc(C[N+](C)(C)CCCCCCCCCCCCCCCC)c1.[Br-].[Br-].[Br-]	0.16 mM	16 µM	32 µM	8 µM	16 µM	63 µM	> 250 µM	Active	Active	Active	Active	Active	Active
CCCCCCCC[N+](C)(C)Cc1cc(C[n+]2ccccc2)cc(C[N+](C)(C)CCCCCCCC)c1		> 250 µM	> 250 µM	> 250 µM	> 250 µM	> 250 µM	> 250 µM	Active	Active	Active	Active	Active	Active
CCCCCCCC[N+](C)(C)Cc1cc(C[N+](C)(C)C)cc(C[N+](C)(C)CCCCCCCC)c1		> 250 µM	> 250 µM	> 250 µM	> 250 µM	> 250 µM	> 250 µM	Active	Active	Active	Active	Active	Active

More lines, main results first:

CAC [1]	MIC (Bacillus cereus [2])	MIC (Enterococcus faecalis [3])	MIC (Streptococcus agalactiae [4])	MIC (Staphylococcus aureus [5])	MIC (Escherichia coli [6])	MIC (Pseudomonas aeruginosa [7])	SMILES	Activity (Bacillus cereus [8])	Activity (Enterococcus faecalis [9])	Activity (Streptococcus agalactiae [10])	Activity (Staphylococcus aureus [11])	Activity (Escherichia coli [12])	Activity (Pseudomonas aeruginosa [13])
14 mM	8 µM	8 µM	8 µM	2 µM	16 µM	63 µM	CCCCCCCCCC[N+](C)(C)Cc1cc(C[n+]2ccccc2)cc(C[N+](C)(C)CCCCCCCCCC)c1.[Br-].[Br-].[Br-]	Active	Active	Active	Active	Active	Active
2.4 mM	2 µM	2 µM	1 µM	2 µM	4 µM	8 µM	CCCCCCCCCCCC[N+](C)(C)Cc1cc(C[n+]2ccccc2)cc(C[N+](C)(C)CCCCCCCCCCCC)c1.[Br-].[Br-].[Br-]	Active	Active	Active	Active	Active	Active
0.6 mM	8 µM	4 µM	4 µM	4 µM	16 µM	63 µM	CCCCCCCCCCCCCC[N+](C)(C)Cc1cc(C[n+]2ccccc2)cc(C[N+](C)(C)CCCCCCCCCCCCCC)c1.[Br-].[Br-].[Br-]	Active	Active	Active	Active	Active	Active
0.18 mM	> 250 µM	> 250 µM	> 250 µM	> 250 µM	> 250 µM	> 250 µM	CCCCCCCCCCCCCCCC[N+](C)(C)Cc1cc(C[n+]2ccccc2)cc(C[N+](C)(C)CCCCCCCCCCCCCCCC)c1.[Br-].[Br-].[Br-]	Active	Active	Active	Active	Active	Active
0.61 mM	4 µM	4 µM	2 µM	4 µM	8 µM	125 µM	CCCCCCCCCCCCCC[N+](C)(C)Cc1cc(C[N+](C)(C)C)cc(C[N+](C)(C)CCCCCCCCCCCCCC)c1.[Br-].[Br-].[Br-]	Active	Active	Active	Active	Active	Active
